What is called IC50 is the midpoint of a concentration-inhibition curve.

IC50 data for 6 compounds are collected here from ChEMBL document CHEMBL6178004, “Novel Azaindole Compounds as Phosphodiesterase 4B Inhibitors for Treating Immune-Inflammatory Diseases or Disorders” (ACS Med Chem Lett, 2025).

Where only a bound is given, the exact number is not on record here.

Experiment [1] has as its target 3',5'-cyclic-AMP phosphodiesterase 4B (Homo sapiens, UniProt Q07343). The experiment can be described thus: Inhibition of human recombinant PDE4B1 using [3H]cAMP as substrate incubated for 30 mins by scintillation proximity assay. (SPA uses beads or plates that emit light when radiolabelled molecules are held near them.)
The target of experiment [2] is 3',5'-cyclic-AMP phosphodiesterase 4D (Homo sapiens, UniProt Q08499). The experiment can be described thus: Inhibition of human recombinant PDE4D3 using [3H]cAMP as substrate incubated for 30 mins by scintillation proximity assay. Format: single protein.
3',5'-cyclic-AMP phosphodiesterase 4D, sequence (Q08499 whole entry): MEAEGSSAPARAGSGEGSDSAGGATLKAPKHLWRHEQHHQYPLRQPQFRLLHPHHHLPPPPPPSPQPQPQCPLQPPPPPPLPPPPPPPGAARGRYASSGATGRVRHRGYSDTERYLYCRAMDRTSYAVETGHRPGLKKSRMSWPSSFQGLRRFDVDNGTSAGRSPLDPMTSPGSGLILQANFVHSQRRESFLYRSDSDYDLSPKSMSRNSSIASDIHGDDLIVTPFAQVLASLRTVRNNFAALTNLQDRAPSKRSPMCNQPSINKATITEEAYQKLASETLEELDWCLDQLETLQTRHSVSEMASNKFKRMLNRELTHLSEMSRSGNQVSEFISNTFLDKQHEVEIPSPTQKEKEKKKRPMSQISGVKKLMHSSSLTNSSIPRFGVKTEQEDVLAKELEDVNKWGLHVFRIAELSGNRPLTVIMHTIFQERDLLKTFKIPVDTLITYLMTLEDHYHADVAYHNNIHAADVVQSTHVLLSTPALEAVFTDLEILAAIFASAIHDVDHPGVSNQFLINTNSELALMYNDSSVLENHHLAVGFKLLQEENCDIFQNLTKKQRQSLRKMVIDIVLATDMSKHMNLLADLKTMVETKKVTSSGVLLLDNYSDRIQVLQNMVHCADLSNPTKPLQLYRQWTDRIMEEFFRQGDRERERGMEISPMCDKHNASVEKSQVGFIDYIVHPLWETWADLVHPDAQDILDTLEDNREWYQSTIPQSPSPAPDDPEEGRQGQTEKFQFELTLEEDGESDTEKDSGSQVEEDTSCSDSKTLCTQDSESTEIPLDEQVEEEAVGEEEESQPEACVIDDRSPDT

3',5'-cyclic-AMP phosphodiesterase 4B, sequence (Q07343 whole entry): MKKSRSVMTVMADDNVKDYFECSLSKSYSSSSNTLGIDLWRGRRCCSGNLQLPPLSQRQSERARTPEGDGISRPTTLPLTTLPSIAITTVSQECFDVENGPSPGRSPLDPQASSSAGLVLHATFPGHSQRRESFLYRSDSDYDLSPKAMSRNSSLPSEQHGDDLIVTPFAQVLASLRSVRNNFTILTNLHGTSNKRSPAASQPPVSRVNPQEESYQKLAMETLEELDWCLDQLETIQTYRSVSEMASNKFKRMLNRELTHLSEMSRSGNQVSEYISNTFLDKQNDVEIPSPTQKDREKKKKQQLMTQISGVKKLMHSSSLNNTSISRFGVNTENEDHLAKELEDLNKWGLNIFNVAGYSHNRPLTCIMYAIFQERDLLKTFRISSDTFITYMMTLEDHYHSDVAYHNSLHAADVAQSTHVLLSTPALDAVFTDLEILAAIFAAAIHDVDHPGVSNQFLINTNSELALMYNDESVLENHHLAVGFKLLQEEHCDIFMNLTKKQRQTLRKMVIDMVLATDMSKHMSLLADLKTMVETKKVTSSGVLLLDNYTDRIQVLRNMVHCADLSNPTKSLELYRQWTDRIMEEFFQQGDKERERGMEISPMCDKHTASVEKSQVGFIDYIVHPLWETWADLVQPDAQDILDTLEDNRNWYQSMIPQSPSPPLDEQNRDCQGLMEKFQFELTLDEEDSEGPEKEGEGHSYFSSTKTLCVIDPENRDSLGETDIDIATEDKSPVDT

`COc1ccc(-c2c3n(c4cc(F)cnc24)C[C@H](CO)N(C2CC2)C3=O)cn1`: the concentration for half-maximal inhibition (IC50) in experiment [1] was less than 10 nM; in experiment [2], 10 nM.
The like results for `O=C1c2c(-c3ccc(Cl)c(F)c3)c3ncccc3n2C[C@H](CO)N1C1CC1` were, in that order, less than 10 nM and 10 nM.
`O=C1c2c(-c3ccc(F)c(F)c3)c3ncccc3n2C[C@@H](CO)N1C1CC1`: the 50% inhibitory concentration (IC50) in experiment [1] was less than 10 nM; in experiment [2], 10 nM.
The like results for `N#Cc1ccc(-c2c3n(c4cccnc24)C[C@@H](CO)N(C2CC2)C3=O)cc1F` were, in that order, less than 10 nM and 10 nM.
The like results for `O=C1c2c(-c3ccc(Cl)c(F)c3)c3ncccc3n2CCN1CCO` were, in that order, less than 10 nM and 10 nM.
The like results for `C[C@@H]1Cn2c(c(-c3ccc(Cl)c(F)c3)c3ncccc32)C(=O)N1CCO` were, in that order, less than 10 nM and less than 10 nM.
